Experimental data from patent US20250059171A1 (Hoffmann-La Roche Inc., priority 2021, published 2025).
Like-named read-outs stand apart in the source and are kept apart here.

Tests used:
SARS-CoV-2 3CLpro = SARS-CoV-2 3CLpro (Severe acute respiratory syndrome coronavirus 2, UniProt P0DTD1); assay: biochemical
HCoV-229E 3CLpro = HCoV-229E 3CLpro (Human coronavirus 229E, UniProt P0C6X1); assay: HCoV-229E 3CLpro inhibition assay (FRET); type: biochemical
MERS-CoV 3CLpro = MERS-CoV 3CLpro (Middle East respiratory syndrome-related coronavirus, UniProt K9N7C7); assay: biochemical
Chain of MERS-CoV 3CLpro (K9N7C7 3248-3553): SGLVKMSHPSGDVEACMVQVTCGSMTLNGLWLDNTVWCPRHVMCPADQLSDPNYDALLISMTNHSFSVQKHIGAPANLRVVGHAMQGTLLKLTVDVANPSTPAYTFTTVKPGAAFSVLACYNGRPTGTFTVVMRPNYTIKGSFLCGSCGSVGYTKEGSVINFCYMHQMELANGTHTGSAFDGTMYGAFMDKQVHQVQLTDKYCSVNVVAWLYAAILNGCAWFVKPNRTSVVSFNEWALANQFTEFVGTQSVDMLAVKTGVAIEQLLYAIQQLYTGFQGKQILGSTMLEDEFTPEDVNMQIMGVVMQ

SARS-CoV 3CLpro = SARS-CoV 3CLpro (Severe acute respiratory syndrome coronavirus, UniProt P0C6X7); assay: biochemical

Chain of HCoV-229E 3CLpro (P0C6X1 2966-3267): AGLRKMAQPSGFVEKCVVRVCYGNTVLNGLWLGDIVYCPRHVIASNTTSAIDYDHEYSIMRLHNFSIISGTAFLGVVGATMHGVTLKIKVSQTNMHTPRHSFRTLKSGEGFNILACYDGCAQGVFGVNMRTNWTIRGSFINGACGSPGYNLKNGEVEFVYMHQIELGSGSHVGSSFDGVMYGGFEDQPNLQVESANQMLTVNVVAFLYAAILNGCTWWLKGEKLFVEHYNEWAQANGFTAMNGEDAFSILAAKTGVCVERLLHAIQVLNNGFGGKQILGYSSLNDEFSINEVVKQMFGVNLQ

With CC[C@H](C)[C@H](NC(=O)[C@H](F)Cl)C(=O)N1C[C@@H]2CCC[C@@H]2[C@H]1C(=O)NN(C[C@H]1CCCNC1=O)C(=O)[C@H](F)Cl [Example 192, (2R)—N-[(1S,2S)-1-[(3S,3aS,6aR)-3-[[[(2R)-2-chloro-2-fluoro-acetyl]-[[(3R)-2-oxo-3-piperidyl]methyl]amino]carbamoyl]-3,3a,4,5,6,6a-hexahydro-1H-cyclopenta[c]pyrrole-2-carbonyl]-2-methyl-butyl]-2-chloro-2-fluoro-acetamide] the IC50 (SARS-CoV-2 3CLpro) was 0.01 µM, the IC50 (HCoV-229E 3CLpro) was 0.052 µM and the IC50 (MERS-CoV 3CLpro) was 0.148 µM. For the same compound, the IC50 (SARS-CoV 3CLpro) was 0.017 µM.
CC1(C)C[C@@H](C(=O)NN(C[C@@H]2CCNC2=O)C(=O)[C@H](F)Cl)N(C(=O)[C@@H](NC(=O)C(F)(F)F)C(C)(C)C)C1 [Example 8, N-[(1S)-1-[(2S)-2-[[[(2R)-2-chloro-2-fluoro-acetyl]-[[(3S)-2-oxopyrrolidin-3-yl]methyl]amino]carbamoyl]-4,4-dimethyl-pyrrolidine-1-carbonyl]-2,2-dimethyl-propyl]-2,2,2-trifluoro-acetamide] was tested, and the IC50 (SARS-CoV-2 3CLpro) was 0.01 µM, the IC50 (HCoV-229E 3CLpro) was 0.042 µM and the IC50 (MERS-CoV 3CLpro) was 0.136 µM. The IC50 (SARS-CoV 3CLpro) was 0.025 µM.
Work on CC[C@@H](C)[C@H](NC(=O)C1CC(F)(F)C1)C(=O)N1C[C@H]2[C@@H]([C@H]1C(=O)NN(C[C@@H]1CCNC1=O)C(=O)[C@H](F)Cl)C2(C)C [Example 114, N-[(1S,2R)-1-[(1R,2S,5S)-2-[[[(2R)-2-chloro-2-fluoro-acetyl]-[[(3S)-2-oxopyrrolidin-3-yl]methyl]amino]carbamoyl]-6,6-dimethyl-3-azabicyclo[3.1.0]hexane-3-carbonyl]-2-methyl-butyl]-3,3-difluoro-cyclobutanecarboxamide] yielded an IC50 (SARS-CoV-2 3CLpro) of 0.017 µM, an IC50 (HCoV-229E 3CLpro) of 0.029 µM and an IC50 (MERS-CoV 3CLpro) of 0.113 µM. For the same compound, the IC50 (SARS-CoV 3CLpro) was 0.025 µM.
Compound CC(C)(C)[C@H](NC(=O)c1cc(C(F)(F)F)on1)C(=O)N1C[C@H]2[C@@H]([C@H]1C(=O)NN(C[C@@H]1CCNC1=O)C(=O)[C@H](F)Cl)C2(C)C [Example 16, N-[(1S)-1-[(1R,2S,5S)-2-[[[(2R)-2-chloro-2-fluoro-acetyl]-[[(3S)-2-oxopyrrolidin-3-yl]methyl]amino]carbamoyl]-6,6-dimethyl-3-azabicyclo[3.1.0]hexane-3-carbonyl]-2,2-dimethyl-propyl]-5-(trifluoromethyl)isoxazole-3-carboxamide] has an IC50 (SARS-CoV-2 3CLpro) of 0.02 µM, an IC50 (HCoV-229E 3CLpro) of 0.159 µM and an IC50 (MERS-CoV 3CLpro) of 0.43 µM. The IC50 (SARS-CoV 3CLpro) was 0.357 µM.
CC1([C@H](NC(=O)C(F)(F)F)C(=O)N2C[C@H]3[C@@H]([C@H]2C(=O)NN(C[C@@H]2CCNC2=O)C(=O)[C@H](F)Cl)C3(C)C)CC1 [Example 68, N-[(1S)-2-[(1R,2S,5S)-2-[[[(2R)-2-chloro-2-fluoro-acetyl]-[[(3S)-2-oxopyrrolidin-3-yl]methyl]amino]carbamoyl]-6,6-dimethyl-3-azabicyclo[3.1.0]hexan-3-yl]-1-(1-methylcyclopropyl)-2-oxo-ethyl]-2,2,2-trifluoro-acetamide] showed an IC50 (SARS-CoV-2 3CLpro) of 0.018 µM, an IC50 (HCoV-229E 3CLpro) of 0.023 µM and an IC50 (MERS-CoV 3CLpro) of 0.081 µM. For the same compound, the IC50 (SARS-CoV 3CLpro) was 0.014 µM.
In the case of CC[C@H](C)[C@H](NC(=O)C(C)F)C(=O)N1C[C@H]2[C@@H]([C@H]1C(=O)NN(C[C@@H]1CCNC1=O)C(=O)[C@H](F)Cl)C2(C)C (mixture of isomers) [Example 56, Rac-2-fluoro-N-[(1S,2S)-2-methyl-1-[(1R,2S,5S)-6,6-dimethyl-2-[[[(2R)-2-chloro-2-fluoro-acetyl]-[[(3S)-2-oxopyrrolidin-3-yl]methyl]amino]carbamoyl]-3-azabicyclo[3.1.0]hexane-3-carbonyl]butyl]propanamide], the IC50 (SARS-CoV-2 3CLpro) is reported as 0.008 µM, the IC50 (HCoV-229E 3CLpro) is reported as 0.018 µM and the IC50 (MERS-CoV 3CLpro) is reported as 0.052 µM. For the same compound, the IC50 (SARS-CoV 3CLpro) was 0.011 µM.
CC[C@@H](C)[C@H](NC(=O)C1CC1(F)F)C(=O)N1C[C@H]2[C@@H]([C@H]1C(=O)NN(C[C@@H]1CCNC1=O)C(=O)[C@@H](F)Cl)C2(C)C (mixture of isomers) [Example 124, Rac-2,2-difluoro-N-[(1S,2R)-2-methyl-1-[(1R,2S,5S)-6,6-dimethyl-2-[[[(2S)-2-chloro-2-fluoro-acetyl]-[[(3S)-2-oxopyrrolidin-3-yl]methyl]amino]carbamoyl]-3-azabicyclo[3.1.0]hexane-3-carbonyl]butyl]cyclopropanecarboxamide] showed an IC50 (SARS-CoV-2 3CLpro) of 0.026 µM, an IC50 (HCoV-229E 3CLpro) of 0.041 µM and an IC50 (MERS-CoV 3CLpro) of 0.115 µM. The IC50 (SARS-CoV 3CLpro) was 0.045 µM.
With CC[C@H](C)[C@H](NC(=O)C(F)F)C(=O)N1C[C@@H]2CCC[C@@H]2[C@H]1C(=O)NN(C[C@@H]1CCNC1=O)C(=O)[C@H](F)Cl [Example 39, N-[(1S,2S)-1-[(3S,3aS,6aR)-3-[[[(2R)-2-chloro-2-fluoro-acetyl]-[[(3S)-2-oxopyrrolidin-3-yl]methyl]amino]carbamoyl]-3,3a,4,5,6,6a-hexahydro-1H-cyclopenta[c]pyrrole-2-carbonyl]-2-methyl-butyl]-2,2-difluoro-acetamide] the IC50 (SARS-CoV-2 3CLpro) was 0.009 µM, the IC50 (HCoV-229E 3CLpro) was 0.029 µM and the IC50 (MERS-CoV 3CLpro) was 0.071 µM. For the same compound, the IC50 (SARS-CoV 3CLpro) was 0.011 µM.
CCC(C)(C)[C@H](NC(=O)C1(F)CC1)C(=O)N1C[C@@H]2CCC[C@@H]2[C@H]1C(=O)NN(C[C@@H]1CCNC1=O)C(=O)[C@H](F)Cl [Example 149, N-[(1S)-1-[(3S,3aS,6aR)-3-[[[(2R)-2-chloro-2-fluoro-acetyl]-[[(3S)-2-oxopyrrolidin-3-yl]methyl]amino]carbamoyl]-3,3a,4,5,6,6a-hexahydro-1H-cyclopenta[c]pyrrole-2-carbonyl]-2,2-dimethyl-butyl]-1-fluoro-cyclopropanecarboxamide] was tested, and the IC50 (SARS-CoV-2 3CLpro; read-out: IC50 in SARS-CoV-2 3CLpro assay) was 0.006 µM, the IC50 (HCoV-229E 3CLpro) was 0.045 µM and the IC50 (MERS-CoV 3CLpro) was 0.139 µM. It also gave an IC50 (SARS-CoV 3CLpro) of 0.015 µM.
With CC1(C)[C@@H]2[C@@H](C(=O)NN(C[C@@H]3CCNC3=O)C(=O)[C@H](F)Cl)N(C(=O)/C=C/c3cc(F)cc(F)c3)C[C@@H]21 [Example 181, (1R,2S,5S)—N′-[(2R)-2-chloro-2-fluoro-acetyl]-3-[(E)-3-(3,5-difluorophenyl)prop-2-enoyl]-6,6-dimethyl-N′—[[(3S)-2-oxopyrrolidin-3-yl]methyl]-3-azabicyclo[3.1.0]hexane-2-carbohydrazide] the IC50 (SARS-CoV-2 3CLpro) was 0.208 µM, the IC50 (HCoV-229E 3CLpro) was 0.048 µM and the IC50 (MERS-CoV 3CLpro) was 0.363 µM. The IC50 (SARS-CoV 3CLpro) was 0.252 µM.
CCC(CC)[C@H](NC(=O)C1CC1)C(=O)N1C[C@@H]2CCC[C@@H]2[C@H]1C(=O)NN(C[C@@H]1CCCNC1=O)C(=O)[C@H](F)Cl [Example 171a, N-[(1S)-1-[(3S,3aS,6aR)-3-[[[(2R)-2-chloro-2-fluoro-acetyl]-[[(3S)-2-oxo-3-piperidyl]methyl]amino]carbamoyl]-3,3a,4,5,6,6a-hexahydro-1H-cyclopenta[c]pyrrole-2-carbonyl]-2-ethyl-butyl]cyclopropanecarboxamide] showed an IC50 (SARS-CoV-2 3CLpro) of 0.008 µM, an IC50 (HCoV-229E 3CLpro) of 0.094 µM and an IC50 (MERS-CoV 3CLpro) of 0.13 µM. For the same compound, the IC50 (SARS-CoV 3CLpro) was 0.017 µM.
In the case of CC[C@H](C)[C@H](NC(=O)C(C)F)C(=O)N1C[C@@H]2CCC[C@@H]2[C@H]1C(=O)NN(C[C@@H]1CCNC1=O)C(=O)[C@H](F)Cl (mixture of isomers) [Example 43, Rac-2-fluoro-N-[(1S,2S)-2-methyl-1-[(3S,3aS,6aR)-3-[[[(2R)-2-chloro-2-fluoro-acetyl]-[[(3S)-2-oxopyrrolidin-3-yl]methyl]amino]carbamoyl]-3,3a,4,5,6,6a-hexahydro-1H-cyclopenta[c]pyrrole-2-carbonyl]butyl]propanamide], the IC50 (SARS-CoV-2 3CLpro) is reported as 0.008 µM, the IC50 (HCoV-229E 3CLpro) is reported as 0.022 µM and the IC50 (MERS-CoV 3CLpro) is reported as 0.058 µM. The IC50 (SARS-CoV 3CLpro) was 0.011 µM.
CCC(CC)[C@H](NC(=O)C(C)F)C(=O)N1CC(C)(C)C[C@H]1C(=O)NN(C[C@@H]1CCNC1=O)C(=O)[C@H](F)Cl (mixture of isomers) [Example 137, Rac-2-fluoro-N-[(1S)-2-ethyl-1-[(2S)-4,4-dimethyl-2-[[[(2R)-2-chloro-2-fluoro-acetyl]-[[(3S)-2-oxopyrrolidin-3-yl]methyl]amino]carbamoyl]pyrrolidine-1-carbonyl]butyl]propanamide] showed an IC50 (SARS-CoV-2 3CLpro) of 0.018 µM, an IC50 (HCoV-229E 3CLpro) of 0.046 µM and an IC50 (MERS-CoV 3CLpro) of 0.192 µM. It also gave an IC50 (SARS-CoV 3CLpro) of 0.027 µM.
For CCC(C)(C)[C@H](NC(=O)C1(F)CC1)C(=O)N1CC(C)(C)C[C@H]1C(=O)NN(C[C@@H]1CCNC1=O)C(=O)[C@H](F)Cl [Example 154, N-[(1S)-1-[(2S)-2-[[[(2R)-2-chloro-2-fluoro-acetyl]-[[(3S)-2-oxopyrrolidin-3-yl]methyl]amino]carbamoyl]-4,4-dimethyl-pyrrolidine-1-carbonyl]-2,2-dimethyl-butyl]-1-fluoro-cyclopropanecarboxamide], the IC50 (SARS-CoV-2 3CLpro) was 0.017 µM, the IC50 (HCoV-229E 3CLpro) was 0.052 µM and the IC50 (MERS-CoV 3CLpro) was 0.305 µM. The IC50 (SARS-CoV 3CLpro) was 0.021 µM.
In the case of CCC(C)(C)[C@H](NC(=O)[C@@H]1CC1(F)F)C(=O)N1C[C@@H]2CCC[C@@H]2[C@H]1C(=O)NN(C[C@@H]1CCNC1=O)C(=O)[C@@H](F)Cl [Example 152, (1S)—N-[(1S)-1-[(3S,3aS,6aR)-3-[[[(2S)-2-chloro-2-fluoro-acetyl]-[[(3S)-2-oxopyrrolidin-3-yl]methyl]amino]carbamoyl]-3,3a,4,5,6,6a-hexahydro-1H-cyclopenta[c]pyrrole-2-carbonyl]-2,2-dimethyl-butyl]-2,2-difluoro-cyclopropanecarboxamide], the IC50 (SARS-CoV-2 3CLpro) is reported as 0.015 µM, the IC50 (HCoV-229E 3CLpro) is reported as 0.028 µM and the IC50 (MERS-CoV 3CLpro) is reported as 0.099 µM. The IC50 (SARS-CoV 3CLpro) was 0.02 µM.
Compound CC[C@H](C)[C@H](NC(=O)C1CC1)C(=O)N1C[C@@H]2CCC[C@@H]2[C@H]1C(=O)NN(C[C@@H]1CCNC1=O)C(=O)[C@H](F)Cl [Example 37, N-[(1S,2S)-1-[(3S,3aS,6aR)-3-[[[(2R)-2-chloro-2-fluoro-acetyl]-[[(3S)-2-oxopyrrolidin-3-yl]methyl]amino]carbamoyl]-3,3a,4,5,6,6a-hexahydro-1H-cyclopenta[c]pyrrole-2-carbonyl]-2-methyl-butyl]cyclopropanecarboxamide] has an IC50 (SARS-CoV-2 3CLpro) of 0.009 µM, an IC50 (HCoV-229E 3CLpro) of 0.029 µM and an IC50 (MERS-CoV 3CLpro) of 0.076 µM. The IC50 (SARS-CoV 3CLpro) was 0.011 µM.
